From patent publication US20220079966A1, “HYALURONAN SYNTHESIS INHIBITION FOR TREATING AUTOIMMUNE, INFLAMMATORY, FIBROTIC, OR PROLIFERATIVE DISEASES OR DISORDERS” (The Board of Trustees of the Leland Stanford Junior …, priority 2018, published 2022)

Tests used:
human cell lines = assay: HA synthesis by human cell lines (unpublished data); type: cell-based; conditions: compared with parent drug 4-MU
[1] = Chemical stability of 4-MUG in fasted state simulated gastric fluid; type: physicochemical; conditions: 100 μM, FaSSGF pH 1.6, 37° C., 0-120 minutes
Experimental: To determine the chemical stability of 4-MUG, its half-life (t1/2) was evaluated. 4-MUG was tested at a concentration of 100 μM. The internal standard (IS) was prepared at 50 ng/mL with tolbutamide in DMSO and a buffer solution was prepared of fasted state simulated gastric fluid (FaSSGF) at pH 1.6. The buffer was pre-warmed at 37° C. for 15 minutes, subsequently 4-MUG was added, and the solution was vortexed. Next, 30 μL of this reaction mixture was removed at each time point for analysis. The time points included 0 minutes, 15 minutes, 30 minutes, 60 minutes and 120 minutes. The reaction was stopped at the end of the experiment by adding IS solution. The samples were centrifuged at 4,000 rpm for 15 minutes at 4° C. 100 μL of the supernatant was mixed with distilled water for further liquid chromatography with tandem mass spectrometry (LC-MS/MS) analysis. The mass spectrometry detection was performed using a SCIEX® API 4500 Qtrap® (Sciex, Redwood City, Calif.). Each compound was analyzed by reverse phase high performance liquid chromatography (HPLC). The parameters calculated were the ratio of 4-MUG, the percent of 4-MUG remaining versus time, and the estimation of 4-MUG's t1/2.

[2] = Conversion of 4-MUG into fluorescent 4-MU in medium (fluorescence plate reader); type: in vitro ADME; conditions: PBS with 10% FCS, monitored up to 72 hours
Experimental: Given the established activity of 4-MU leading to inhibition of HA synthesis, it seemed possible that the bioactivity of 4-MUG could be attributed to its hydrolysis into 4-MU. It is generally known that 4-MU is fluorescent while 4-MUG is not. In particular, 4-MU has an excitation wavelength of 380 nm and an emission wavelength of 454 nm in water.
Fluorescent values of 4-MUG were normalized to the 4-MU fluorescence. Referring to FIG. 2 B, 4-MU or 4-MUG was added to PBS with 10% FCS and the increase of fluorescence signal using a fluorescence plate reader was monitored at intervals up to 72 hours.

[3] = cited from earlier work
[4] = parameters: species or system mice; conditions: mouse, in vivo
Experimental: The 4-MU (Alfa Aesar) was pressed into mouse chow (TestDiet, St. Louis, Mo.) and irradiated before shipment, as previously described (Nagy N., et al., Circulation. 2010; 122(22):2313-2322). This chow formulation delivers 250 mg/mouse/day, yielding a serum drug concentration of 640.3±17.2 nmol/L in mice, as measured by HPLC-MS. 4-MUG (ChemImpex, Wood Dale, Ill.) was distributed in the drinking water at a concentration of 2 mg/ml, delivering 10 mg/mouse/day, yielding a serum drug concentration of 357.1±72.6 ng/mL in mice, as measured by LC-MS/MS. Mice were initiated on 4-MU and 4-MUG at five, eight or twelve weeks of age, unless otherwise noted, and were maintained on this diet until they were euthanized, unless otherwise noted. For analysis of Foxp3+ regulatory T-cell numbers in naïve mice, mice were treated daily with 0.5 mg of 4-MU or 1.0 mg 4-MUG in 200 μl 0.08% carboxymethylcellulose in saline by intra-peritoneal injection.
4-methylumbelliferone-13C4 (Toronto Research Chemicals, Ontario, Canada) was used as the internal standard (IS) for 4-MU and 7-hydroxycoumarin β-D-glucuronide (Toronto Research Chemicals, Ontario, Canada) as the IS for 4-MUG. The neat stock solutions of 4-MU and 4-MUG were mixed and diluted in 50% methanol to prepare the spiking solutions ranging from 1 ng/mL to 5000 ng/mL for each compound. […]

SMILES	inhibition of HA synthesis by human cell lines (human cell lines)	chemical stability [1]	time from which fluorescence (conversion to 4-MU) could be detected [2]	fraction of a single intravenous dose eliminated as the 4-MUG metabolite in urine ([3]; in humans, single intravenous dose of 4-MU) [%]	half-life ([3]; in humans) [min]	share of 4-MU metabolism accounted for by glucuronidation into 4-MUG ([3]; in humans)	fraction of a given dose excreted unchanged in the urine ([3]; species not given) [%]	systemic oral bioavailability ([3]; species not given) [%]	amount of 4-MUG in fat and muscle, 4-MU treatment compared to 4-MUG treatment [4]
Cc1cc(=O)oc2cc(O[C@@H]3O[C@H](C(=O)O)[C@@H](O)[C@H](O)[C@H]3O)ccc12 [4-MUG, 4-methylumbelliferone-glucuronide]	just as well as the parent drug	stable	around 30 hours	–	–	–	–	–	–
Cc1cc(=O)oc2cc(O)ccc12 [4-MU, 4-methylumbelliferone]	–	–	–	93	28	over 90%	< 1	< 3	significantly higher amount of 4-MUG
